# Measurements taken from US20070128217A1 (priority 2003, published 2007).
# What was measured:
# [1] = test system: control sera (pooled serum of ten healthy LUMC hospital workers; commercial negative donor pooled serum from the Dutch bloodbank); type: binding, human; set-up: Binding of Control serum LUMC to linear peptides / Binding of Control serum Blood-bank to linear peptides / Binding of Control serum LUMC to looped peptides / Binding of Control Serum Blood-Bank to Looped peptides / Binding of Control serum LUMC to linear peptides of the protein M of SARS-CoV Urbani / Binding of Control serum Blood-bank to linear peptides of the protein M of SARS-CoV Urbani / Binding of Control serum LUMC to looped peptides of the protein M of SARS-CoV Urbani / Binding of Control Serum Blood-Bank to Looped peptides of the protein M of SARS-CoV Urbani: unit not given here
# [2] = test system: rabbit serum obtained by immunizing a rabbit with the SARS-CoV strain Frankfurt 1; type: binding; set-up: Binding of a rabbit serum to linear peptides / Binding of a rabbit serum to looped peptides / Rabbit serum linear peptides / Rabbit serum looped peptides / Binding of a rabbit serum to linear peptides of protein N of SARS-CoV Urbani (Rabbit serum linear peptides) / Binding of a rabbit serum to looped/cyclic peptides of protein N of SARS-CoV Urbani (Rabbit serum looped peptides): unit not given here
# [3] = test system: antibodies in sera from SARS patients (sera 1a, 1b, 2, 6, 37, 62, London, SARS-yellow, SARS-green); type: binding, human; set-up: Binding of serum 6 to linear peptides of protein X1 of SARS-CoV Urbani / Binding of serum 37 to linear peptides of protein X1 of SARS-CoV Urbani / Binding of serum 6 to looped/cyclic peptide (PEPSCAN-ELISA) / Binding of serum 37 to looped/cyclic peptide (PEPSCAN-ELISA) / Binding of serum 37 to looped/cyclic peptides of protein X1 of SARS-CoV Urbani / Binding of serum 6 to linear peptides of protein X2 / Binding of serum 37 to linear peptides of protein X2 / Binding of serum 37 to looped/cyclic peptides of protein X2 of SARS-CoV Urbani / Binding of serum 6 to linear peptides of protein M of SARS-CoV Urbani / Binding of serum 37 to linear peptides of protein M of SARS-CoV Urbani / Binding of serum 6 to looped/cyclic peptides of protein M of SARS-CoV Urbani / Binding of serum 37 to looped/cyclic peptides of protein M of SARS-CoV Urbani / Binding of serum 6 to linear peptides of protein X3 of SARS-CoV Urbani / Binding of serum 37 to linear peptides of protein X3 of SARS-CoV Urbani / Binding of serum 37 to looped/cyclic peptides of protein X3 of SARS-CoV Urbani / Binding of serum 6 to linear peptides of protein X4 of SARS-CoV Urbani / Binding of serum 37 to linear peptides of protein X4 of SARS-CoV Urbani / Binding of serum 37 to looped/cyclic peptides of protein X4 of SARS-CoV Urbani / Binding of serum 6 to linear peptides of protein X5 of SARS-CoV Urbani / Binding of serum 37 to linear peptides of protein X5 of SARS-CoV Urbani / Binding of serum 37 to looped/cyclic peptides of protein X5 of SARS-CoV Urbani / Binding of serum 6 to linear peptides of protein N of SARS-CoV Urbani / Binding of serum 37 to linear peptides of protein N of SARS-CoV Urbani / Binding of serum 6 to linear peptide (PEPSCAN-ELISA) / Binding of serum 1a to looped/cyclic peptides of protein N of SARS-CoV Urbani / Binding of serum 1b to looped/cyclic peptides of protein N of SARS-CoV Urbani / Binding of serum 2 to looped/cyclic peptides of protein N of SARS-CoV Urbani / Binding of serum 6 to looped/cyclic peptides of protein N of SARS-CoV Urbani / Binding of serum 37 to looped/cyclic peptides of protein N of SARS-CoV Urbani / Binding of serum 62 to looped/cyclic peptides of protein N of SARS-CoV Urbani / Binding of serum London to looped/cyclic peptides of protein N of SARS-CoV Urbani / Binding of serum SARS-green to looped/cyclic peptides of protein N of SARS-CoV Urbani: unit not given here
Sequence,Binding of Control Serum Blood-Bank to Looped peptides of the protein M of SARS-CoV Urbani [1],Binding of Control serum Blood-bank to linear peptides of the protein M of SARS-CoV Urbani [1],Binding of Control serum LUMC to linear peptides of the protein M of SARS-CoV Urbani [1],Binding of Control serum LUMC to looped peptides of the protein M of SARS-CoV Urbani [1],Rabbit serum linear peptides [2],Rabbit serum looped peptides [2],Binding of serum 1a to linear peptides of protein M of SARS-CoV Urbani [3],Binding of serum 1b to linear peptides of protein M of SARS-CoV Urbani [3],Binding of serum 2 to linear peptides of protein M of SARS-CoV Urbani [3],Binding of serum 6 to linear peptides of protein M of SARS-CoV Urbani [3],Binding of serum 37 to linear peptides of protein M of SARS-CoV Urbani [3],Binding of serum 62 to linear peptides of protein M of SARS-CoV Urbani [3],Binding of serum London to linear peptides of protein M of SARS-CoV Urbani [3],Binding of serum SARS-green to linear peptides of protein M of SARS-CoV Urbani [3],Binding of serum SARS-yellow to linear peptides of protein M of SARS-CoV Urbani [3],"Recognition of the peptide by sera of SARS-CoV infected individuals, and form (linear, looped/cyclic) in which it is recognized [3]",Binding of Control Serum Blood-Bank to Looped peptides [1],Binding of Control serum Blood-bank to linear peptides [1],Binding of Control serum LUMC to linear peptides [1],Binding of Control serum LUMC to looped peptides [1],also measured
NRFLYIIKLVFLWLL,0.7,0.7,0.3,0.6,0.4,0.3,0.7,0.5,0.5,0.3,0.7,0.7,0.3,0.3,0.1,recognized in looped/cyclic form,,,,,
NRNRFLYIIKLVFLW,0.8,0.7,0.4,0.7,0.5,0.4,0.7,0.4,0.6,0.3,0.7,0.7,0.3,0.3,0.1,recognized in looped/cyclic form,,,,,
NRYRIGNYKLNTDHA,0.7,0.2,0.2,0.7,0.2,0.3,0.8,0.6,0.5,0.3,0.5,0.6,0.2,0.2,0.1,,,,,,Binding of serum 1a to looped/cyclic peptides of protein M of SARS-CoV Urbani [3]: 0.8; Binding of serum 1b to looped/cyclic peptides of protein M of SARS-CoV Urbani [3]: 0.6; Binding of serum 2 to looped/cyclic peptides of protein M of SARS-CoV Urbani [3]: 0.5; Binding of serum 6 to looped/cyclic peptides of protein M of SARS-CoV Urbani [3]: 0.7; Binding of serum 37 to looped/cyclic peptides of protein M of SARS-CoV Urbani [3]: 0.6; Binding of serum 62 to looped/cyclic peptides of protein M of SARS-CoV Urbani [3]: 0.5; Binding of serum London to looped/cyclic peptides of protein M of SARS-CoV Urbani [3]: 0.4; Binding of serum SARS-green to looped/cyclic peptides of protein M of SARS-CoV Urbani [3]: 0.3; Binding of serum SARS-yellow to looped/cyclic peptides of protein M of SARS-CoV Urbani [3]: 0.9
NTYSTAWLCALGKVL,,,,,0.6,0.5,,,,,,,,,,,0.4,0.8,0.4,0.5,Binding of serum 1a to linear peptides of protein X5 of SARS-CoV Urbani [3]: 0.7; Binding of serum 1a to looped/cyclic peptides of protein X5 of SARS-CoV Urbani [3]: 0.4; Binding of serum 1b to linear peptides of protein X5 of SARS-CoV Urbani [3]: 0.4; Binding of serum 1b to looped/cyclic peptides of protein X5 of SARS-CoV Urbani [3]: 0.3; Binding of serum 2 to linear peptides of protein X5 of SARS-CoV Urbani [3]: 0.5; Binding of serum 2 to looped/cyclic peptides of protein X5 of SARS-CoV Urbani [3]: 0.5; Binding of serum 6 to linear peptides of protein X5 of SARS-CoV Urbani [3]: 0.6; Binding of serum 6 to looped/cyclic peptides of protein X5 of SARS-CoV Urbani [3]: 1.1; Binding of serum 37 to linear peptides of protein X5 of SARS-CoV Urbani [3]: 0.6; Binding of serum 37 to looped/cyclic peptides of protein X5 of SARS-CoV Urbani [3]: 0.5; Binding of serum 62 to linear peptides of protein X5 of SARS-CoV Urbani [3]: 0.7; Binding of serum 62 to looped/cyclic peptides of protein X5 of SARS-CoV Urbani [3]: 0.6; Binding of serum London to linear peptides of protein X5 of SARS-CoV Urbani [3]: 0.6; Binding of serum London to looped/cyclic peptides of protein X5 of SARS-CoV Urbani [3]: 2.3; Binding of serum SARS-green to linear peptides of protein X5 of SARS-CoV Urbani [3]: 0.4; Binding of serum SARS-green to looped/cyclic peptides of protein X5 of SARS-CoV Urbani [3]: 0.3; Binding of serum SARS-yellow to linear peptides of protein X5 of SARS-CoV Urbani [3]: 0.3; Binding of serum SARS-yellow to looped/cyclic peptides of protein X5 of SARS-CoV Urbani [3]: 0.6
NVPLRGTIVTRPLME,0.7,0.6,0.4,0.9,0.3,0.5,0.8,0.6,0.4,0.3,0.7,0.8,0.3,0.4,0.1,recognized in looped/cyclic form,,,,,
NVQIHTIDGSSGVAN,,,,,,,,,,,,,,,,,0.4,0.5,0.5,0.4,Binding of a rabbit serum to linear peptides [2]: 0.1; Binding of a rabbit serum to looped peptides [2]: 0.3; Binding of serum 1a to linear peptides of protein X1 of SARS-CoV Urbani [3]: 0.7; Binding of serum 1a to looped/cyclic peptides of protein X1 of SARS-CoV Urbani [3]: 0.2; Binding of serum 1b to linear peptides of protein X1 of SARS-CoV Urbani [3]: 0.5; Binding of serum 1b to looped/cyclic peptides of protein X1 of SARS-CoV Urbani [3]: 0.2; Binding of serum 2 to linear peptides of protein X1 of SARS-CoV Urbani [3]: 0.5; Binding of serum 2 to looped/cyclic peptides of protein X1 of SARS-CoV Urbani [3]: 0.1; Binding of serum 6 to linear peptides of protein X1 of SARS-CoV Urbani [3]: 0.4; Binding of serum 6 to looped/cyclic peptides of protein X1 of SARS-CoV Urbani [3]: 0.1; Binding of serum 37 to linear peptides of protein X1 of SARS-CoV Urbani [3]: 0.7; Binding of serum 37 to looped/cyclic peptides of protein X1 of SARS-CoV Urbani [3]: 0.3; Binding of serum 62 to linear peptides of protein X1 of SARS-CoV Urbani [3]: 0.6; Binding of serum 62 to looped/cyclic peptides of protein X1 of SARS-CoV Urbani [3]: 0.3; Binding of serum London to linear peptides of protein X1 of SARS-CoV Urbani [3]: 0.3; Binding of serum London to looped/cyclic peptides of protein X1 of SARS-CoV Urbani [3]: 0.2; Binding of serum SARS-green to linear peptides of protein X1 of SARS-CoV Urbani [3]: 0.3; Binding of serum SARS-green to looped/cyclic peptides of protein X1 of SARS-CoV Urbani [3]: 0.2; Binding of serum SARS-yellow to linear peptides of protein X1 of SARS-CoV Urbani [3]: 0.4; Binding of serum SARS-yellow to looped/cyclic peptides of protein X1 of SARS-CoV Urbani [3]: 0.1
